Assay results: article PMC6444592, “Citrullination of HP1γ chromodomain affects association with chromatin” (Epigenetics & Chromatin, 2019)

Legend:
chromatin = assay: single-particle tracking, 500 ms, motion blurring: chromatin residence time; format: cell-based, mouse; conditions: for Percentage, Specific / Percentage, Unspecific / Residence time, Specific / Residence time, Unspecific / Residence time, specific binding: 500 ms; for Residence time, specific binding / specific residence time, in words: −LIF 72 h; for Residence time, specific binding: mESCs, mean ± SD (n = 3); for specific residence time, in words: p value left to right = 0.027, 0.036; for unspecific residence time, effect of LIF withdrawal: ns. p value > 0.841
Description: Although HP1 is a multifunctional protein, its best-characterised function is its ability to specifically bind to H3 tails harbouring H3K9me3. This underpins the establishment of localised, as well as higher-order, chromatin domains. Indeed, binding of structural chromatin proteins, such as HP1, is crucial in establishing heterochromatin during stem cell differentiation. We therefore decided to focus on the chromatin bound fraction of HP1γ. We used a concept called motion blurring in which long exposures are used to blur molecules that are diffusing so they are not detected. Therefore, only molecules bound throughout the long exposure are imaged. We performed SPT at 500 ms time resolution of mESCs expressing either HP1γWT or HP1γR38/9A mutant proteins (−/+ LIF). Movies of representative cells are shown in Additional file 8: Movie S1, Additional file 9: Movie S2, Additional file 10: Movie S3, and Additional file 11: Movie S4.
Parental E14 mouse embryonic stem cell (mESC) line was profiled by transcriptome analysis, qPCR and potency assays and was routinely tested for mycoplasma contamination and tested negative. Cells were cultured in DMEM (Gibco) supplemented with 15% standard FCS (Gibco), 0.1 mM non-essential amino acids (Gibco), 1% penicillin/streptomycin, 2 mM L-glutamine (Gibco), 1 mM sodium pyruvate (Gibco), 0.1 mM β-mercaptoethanol (Life Technologies) and 10^6 units/l mLIF (ESGRO, Millipore). E14 cells were stored in incubators at 37 °C in 7.5% CO2 (100% humidity) and maintained in 0.1% gelatin coated 10-cm culture dishes with 1:6 passaging every 2 days. Media was changed on a daily basis. E14 ESCs expressing mouse mEos3.2–HaloTag-HP1 fusion proteins were generated by transfecting appropriate pSB7 plasmids into E14 cells using Lipofectamine 2000 transfection reagent (Invitrogen), followed by selection in 600 µg/ml geneticin (Life Technologies). After 2 weeks of geneticin selection, cells were sorted using a Sony SH800S cell sorter for the expression of mEos3.2. Differentiation of ESCs was induced by LIF withdrawal. ESCs cultured in complete ES cell media (+ LIF) were trypsinised and washed twice in 1x PBS to remove residual LIF, seeded into ES cell media without LIF and incubated for 24, 48 or 72 h.
An IX73 Olympus inverted microscope was used with circularly polarised laser beams aligned and focused at the back aperture of an Olympus 1.40 NA 100 × oil objective (Universal Plan Super Apochromat, 100 × , NA 1.40, UPLSAPO100XO/1.4). Continuous wavelength diode laser light sources used include a 561-nm (Cobolt, Jive 200, 200 mW) and a 405-nm laser (Stradus, Toptica, 405–100, 100 mW). Oblique angle illumination was achieved by aligning the laser off axis such that the emergent beam at the sample interface was near-collimated and incident at an angle slightly less than the critical angle θc ~ 67° for a glass/water interface. This generated a ~ 50 μm diameter excitation footprint. The power of the collimated beams at the back aperture of the microscope was 10 kW/cm^2 and 10–100 W/cm^2 for the 561-nm and 405-nm laser beams, respectively. The lasers were reflected by dichroic mirrors (Semrock, Di01-R405/488/561/635). The fluorescence emission was collected through the same objective and then further filtered using a combination of long-pass and band-pass filters (BLP01-561R and FF01-587/35 for 561 nm excitation). The emission signal was projected onto an EMCCD (Photometrics, Evolve 512 Delta) with an electron multiplication gain of 250 ADU/photon operating in a frame transfer mode.
mESCs expressing mEos3.2–HaloTag-tagged HP1γ were passaged 2 days before imaging onto 35-mm glass bottom dishes No 1.0 (MatTek Corporation P35G-1.0-14-C Case) in phenol red-free serum and LIF conditions, if not stated otherwise. […]

H3K9me3(1–16) peptides = assay: peptide pulldown assay; format: binding; conditions: 300 mM NaCl HBS-EP; Coomassie gel; n = 3 (p values 0.021, 0.008; ns 0.181)
Description: H3K9me3 or unmethylated H3(1–16) peptides, linked to Dynabeads MyOne streptavidin T1 (Thermo Fisher Scientific), were used in pulldown assays with eluted GST-HP1 in HBS-EP (300 mM NaCl, 10 mM HEPES KOH pH 7.4, 5 mM EDTA and 0.2% NP-40). Pulldown assays were performed in 300 mM NaCl HBS-EP as previously described. Samples were resuspended in 2 × Laemmli buffer and resolved by SDS-PAGE followed by Coomassie-blue staining. Images were quantified using ImageJ software.

Residence time, specific binding (chromatin) [s]	Substance	Percentage, Specific (chromatin; +LIF, replicate i) [%]	Percentage, Unspecific (chromatin; +LIF, replicate i) [%]	Residence time, Specific (chromatin; +LIF, replicate i) [s]	Residence time, Unspecific (chromatin; +LIF, replicate i) [s]	Percentage, Specific (chromatin; +LIF, replicate ii) [%]	Percentage, Unspecific (chromatin; +LIF, replicate ii) [%]	Residence time, Specific (chromatin; +LIF, replicate ii) [s]	Residence time, Unspecific (chromatin; +LIF, replicate ii) [s]	Percentage, Specific (chromatin; +LIF, replicate iii) [%]	Percentage, Unspecific (chromatin; +LIF, replicate iii) [%]	Residence time, Specific (chromatin; +LIF, replicate iii) [s]	Residence time, Unspecific (chromatin; +LIF, replicate iii) [s]	specific residence time, in words (chromatin)	unspecific residence time, effect of LIF withdrawal (chromatin; −LIF 72 h versus +LIF)	Percentage, Specific (chromatin; −LIF, replicate i) [%]	Percentage, Unspecific (chromatin; −LIF, replicate i) [%]	Residence time, Specific (chromatin; −LIF, replicate i) [s]	Residence time, Unspecific (chromatin; −LIF, replicate i) [s]	Percentage, Specific (chromatin; −LIF, replicate ii) [%]	further results
49.2 ± 12.3	HP1γWT: full-length mouse HP1γ wild type, as GST or mEos3.2–HaloTag fusion protein	91.000	9.000	36.000	4.400	93.400	6.600	27.527	1.549	87.000	13.000	22.800	1.500	significantly increased	no effect	88.000	12.000	55.000	6.000	93.500	increase of specific residence time upon differentiation (chromatin; −LIF 72 h versus +LIF): 20 s; Percentage, Unspecific (chromatin; −LIF, replicate ii): 6.500%; Residence time, Specific (chromatin; −LIF, replicate ii): 57.488 s; Residence time, Unspecific (chromatin; −LIF, replicate ii): 1.811 s; Percentage, Specific (chromatin; −LIF, replicate iii): 88.000%; Percentage, Unspecific (chromatin; −LIF, replicate iii): 12.000%; Residence time, Specific (chromatin; −LIF, replicate iii): 35.000 s; Residence time, Unspecific (chromatin; −LIF, replicate iii): 2.300 s
29.5 ± 4.1	HP1γR38/9A: HP1γ with alanine substitutions at amino acids 38 and 39 to mimic citrullination	89.000	11.000	26.000	4.100	90.900	9.100	17.900	2.100	82.500	17.500	17.400	1.300	significantly lower than for HP1γWT molecules	no effect	83.000	17.000	34.000	4.900	90.800	binding in pulldown, in words (H3K9me3(1–16) peptides): significantly reduced; specific residence time, in words (chromatin; listed as R38/9A mutant HP1γ): considerably shorter; Percentage, Unspecific (chromatin; −LIF, replicate ii): 9.200%; Residence time, Specific (chromatin; −LIF, replicate ii): 28.500 s; Residence time, Unspecific (chromatin; −LIF, replicate ii): 1.700 s; Percentage, Specific (chromatin; −LIF, replicate iii): 88.200%; Percentage, Unspecific (chromatin; −LIF, replicate iii): 11.800%; Residence time, Specific (chromatin; −LIF, replicate iii): 25.900 s; Residence time, Unspecific (chromatin; −LIF, replicate iii): 1.800 s
